Results on one compound are retold here after ChEMBL document CHEMBL1139352, “Synthesis and evaluation of novel inhibitors of Pim-1 and Pim-2 protein kinases” (J Med Chem, 2009).

Usually inhibition stands for the relative decrease from the control value, in per cent.

Series [1] concerns Mus musculus. As to the kind of experiment: Toxicity in Swiss-Webster mouse at 50 mg/kg, ip daily for 5 days. It is filed as organism-based. Also on record: dose 50 mg/kg, route intraperitoneal. The following applies: in vivo, 120 h.
Series [2] deals with Mus musculus. Briefly: Toxicity in Swiss-Webster mouse at 100 mg/kg, ip daily for 5 days. Also on record: dose 100 mg/kg, route intraperitoneal. The settings on record: in vivo, 120 h. It is filed as organism-based.
For series [3], the system named is Mus musculus. Briefly: Toxicity in Swiss Webster mouse assessed as glucose level at 50 mg/kg, ip daily for 7 days measured after 7 days. Details: dose 50 mg/kg, route intraperitoneal. The following applies: in vivo, 168 h. It is filed as organism-based.
Series [4] deals with Mus musculus. As to the kind of experiment: Toxicity in Swiss Webster mouse assessed as blood urea nitrogen level at 10 mg/kg, ip daily for 7 days measured after 7 days. It is filed as organism-based. Details: dose 10 mg/kg, route intraperitoneal. The following applies: in vivo, 168 h.
Series [5] has as its target Mitogen-activated protein kinase 3 (Homo sapiens) (UniProt P27361). As to the kind of experiment: Inhibition of Erk1 at 5 uM.
Series [6] has as its target Vascular endothelial growth factor receptor 2 (Homo sapiens) (UniProt P35968). Briefly: Inhibition of KDR at 5 uM.
Series [7] has as its target Tyrosine-protein kinase JAK2 (Homo sapiens) (UniProt O60674). Briefly: Inhibition of JAK2 at 5 uM.
For series [8], the system named is Mus musculus. As to the kind of experiment: Toxicity in Swiss Webster mouse assessed as alanine aminotransferase level at 3 mg/kg, ip daily for 7 days measured after 7 days. In kind it is organism-based. Also on record: dose 3 mg/kg, route intraperitoneal. The following applies: in vivo, 168 h.
Series [9] concerns Receptor-type tyrosine-protein kinase FLT3 (Homo sapiens), P36888 [D835Y]. Briefly: Inhibition of FLT3(D835Y) at 5 uM.
Series [10] can be described thus: Inhibition of CAMK2 at 5 uM.
The target in series [11] is Receptor-type tyrosine-protein kinase FLT3 (Homo sapiens) (UniProt P36888). As to the kind of experiment: Inhibition of FLT3 at 5 uM.

Vascular endothelial growth factor receptor 2 (Homo sapiens), sequence (P35968 whole entry): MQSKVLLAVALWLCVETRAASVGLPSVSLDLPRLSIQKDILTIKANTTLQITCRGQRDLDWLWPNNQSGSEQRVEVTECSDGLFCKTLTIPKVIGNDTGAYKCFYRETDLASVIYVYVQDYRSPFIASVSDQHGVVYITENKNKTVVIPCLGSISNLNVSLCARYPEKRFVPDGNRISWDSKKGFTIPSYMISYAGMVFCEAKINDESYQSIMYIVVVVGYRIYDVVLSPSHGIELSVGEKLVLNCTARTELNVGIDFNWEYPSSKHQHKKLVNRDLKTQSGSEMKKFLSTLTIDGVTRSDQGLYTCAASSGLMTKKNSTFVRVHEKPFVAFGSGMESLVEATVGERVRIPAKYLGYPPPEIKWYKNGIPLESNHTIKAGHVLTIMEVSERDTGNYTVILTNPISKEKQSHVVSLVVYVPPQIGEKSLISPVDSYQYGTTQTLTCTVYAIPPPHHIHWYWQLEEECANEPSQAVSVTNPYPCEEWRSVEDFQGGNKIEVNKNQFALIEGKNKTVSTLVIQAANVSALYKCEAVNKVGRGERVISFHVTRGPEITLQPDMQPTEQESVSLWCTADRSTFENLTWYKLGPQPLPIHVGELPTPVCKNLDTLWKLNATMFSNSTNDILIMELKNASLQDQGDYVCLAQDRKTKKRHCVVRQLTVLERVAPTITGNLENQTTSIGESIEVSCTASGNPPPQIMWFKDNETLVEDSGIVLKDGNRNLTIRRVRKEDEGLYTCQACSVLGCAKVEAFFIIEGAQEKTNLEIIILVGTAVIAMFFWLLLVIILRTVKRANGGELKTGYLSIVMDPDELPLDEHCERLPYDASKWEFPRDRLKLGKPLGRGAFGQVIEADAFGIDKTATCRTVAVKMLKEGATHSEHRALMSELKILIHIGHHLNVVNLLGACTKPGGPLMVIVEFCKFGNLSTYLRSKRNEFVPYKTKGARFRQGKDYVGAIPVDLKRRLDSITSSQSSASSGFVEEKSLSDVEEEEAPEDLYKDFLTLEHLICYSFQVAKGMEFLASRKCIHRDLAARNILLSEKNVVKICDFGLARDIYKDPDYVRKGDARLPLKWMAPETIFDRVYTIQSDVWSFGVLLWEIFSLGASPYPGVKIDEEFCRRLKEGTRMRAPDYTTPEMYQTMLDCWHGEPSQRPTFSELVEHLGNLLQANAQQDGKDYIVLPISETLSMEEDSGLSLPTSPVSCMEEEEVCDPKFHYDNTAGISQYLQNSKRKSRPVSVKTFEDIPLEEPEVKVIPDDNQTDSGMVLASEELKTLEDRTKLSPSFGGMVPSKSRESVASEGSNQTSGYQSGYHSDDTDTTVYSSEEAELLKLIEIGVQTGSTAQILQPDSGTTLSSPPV
Mitogen-activated protein kinase 3 (Homo sapiens), sequence (P27361 whole entry): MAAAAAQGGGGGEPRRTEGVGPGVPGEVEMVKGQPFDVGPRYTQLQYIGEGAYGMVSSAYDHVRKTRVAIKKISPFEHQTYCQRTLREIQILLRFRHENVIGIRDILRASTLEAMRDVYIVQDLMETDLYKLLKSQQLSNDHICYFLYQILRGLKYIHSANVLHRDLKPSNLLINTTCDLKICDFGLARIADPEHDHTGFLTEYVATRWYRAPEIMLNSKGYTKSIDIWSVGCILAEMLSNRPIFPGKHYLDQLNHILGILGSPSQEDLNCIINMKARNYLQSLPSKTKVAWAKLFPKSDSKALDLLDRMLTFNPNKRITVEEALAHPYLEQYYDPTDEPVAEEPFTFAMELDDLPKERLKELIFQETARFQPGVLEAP
Tyrosine-protein kinase JAK2 (Homo sapiens), sequence (O60674 whole entry): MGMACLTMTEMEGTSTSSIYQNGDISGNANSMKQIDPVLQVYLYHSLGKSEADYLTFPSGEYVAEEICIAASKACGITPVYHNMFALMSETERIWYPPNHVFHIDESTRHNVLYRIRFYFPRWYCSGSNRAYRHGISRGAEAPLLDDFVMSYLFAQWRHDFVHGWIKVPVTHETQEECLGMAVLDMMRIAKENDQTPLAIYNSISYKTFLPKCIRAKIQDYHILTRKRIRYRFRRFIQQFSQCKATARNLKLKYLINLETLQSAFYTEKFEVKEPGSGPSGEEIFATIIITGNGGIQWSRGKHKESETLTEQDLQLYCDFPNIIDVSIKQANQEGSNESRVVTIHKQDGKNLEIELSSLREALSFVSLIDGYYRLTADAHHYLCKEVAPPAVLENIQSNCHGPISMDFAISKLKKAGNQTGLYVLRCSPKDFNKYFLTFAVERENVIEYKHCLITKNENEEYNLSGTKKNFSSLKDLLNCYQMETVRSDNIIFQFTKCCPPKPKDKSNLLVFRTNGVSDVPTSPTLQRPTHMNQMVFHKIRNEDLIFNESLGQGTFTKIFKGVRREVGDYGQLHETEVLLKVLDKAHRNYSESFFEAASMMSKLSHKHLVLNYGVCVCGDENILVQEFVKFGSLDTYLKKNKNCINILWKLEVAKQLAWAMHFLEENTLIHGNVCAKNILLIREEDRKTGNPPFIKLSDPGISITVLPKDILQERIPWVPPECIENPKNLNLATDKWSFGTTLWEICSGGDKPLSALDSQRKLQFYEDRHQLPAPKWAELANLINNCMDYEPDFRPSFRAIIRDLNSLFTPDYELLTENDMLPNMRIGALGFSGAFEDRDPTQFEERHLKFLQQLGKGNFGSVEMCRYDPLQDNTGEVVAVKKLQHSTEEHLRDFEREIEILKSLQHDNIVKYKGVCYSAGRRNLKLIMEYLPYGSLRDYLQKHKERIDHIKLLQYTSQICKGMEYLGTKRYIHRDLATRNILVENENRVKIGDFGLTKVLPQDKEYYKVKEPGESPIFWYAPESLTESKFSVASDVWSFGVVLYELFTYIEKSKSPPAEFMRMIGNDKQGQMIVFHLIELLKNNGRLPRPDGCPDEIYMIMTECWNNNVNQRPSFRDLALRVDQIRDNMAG

Consider `CCCOc1ccc(/C=C2\SC(=O)NC2=O)cc1`, for which the Activity result is “Non-toxic” with Mus musculus [1]; “Toxic” in the series on Mus musculus [2]; 136 mg/dL in the series on Mus musculus [3]; 11 mg/dL with Mus musculus [4]; 40 U/L with Mus musculus [8]. For the same compound, the inhibition is 1% in series [5]; -4% in [6]; 18% in [7]; 9% in series [9]; -1% in series [10]; 1% in series [11].
